Assay results published in patent publication US12162890B2 (Novartis AG, priority 2015, dated 2024).

The compounds below were run against HEK293 cells with stable expression of the GRIN1 gene and tetracycline-inducible expression of the GRIN2B gene (NMDA receptor, NR2B) (Homo sapiens, UniProt Q13224) (assay: Fluo-8 Ca2+ flux assay: reversal of Ro 25-6981-mediated suppression of the Ca2+ response to co-agonist (glutamate/glycine)). Details: reversal of the Ro 25-6981 suppression of the Ca2+ response to co-agonist (glutamate/glycine).
Chain of HEK293 cells with stable expression of the GRIN1 gene and tetracycline-inducible expression of the GRIN2B gene (NMDA receptor, NR2B) (Q13224 27-1484, other chains not shown): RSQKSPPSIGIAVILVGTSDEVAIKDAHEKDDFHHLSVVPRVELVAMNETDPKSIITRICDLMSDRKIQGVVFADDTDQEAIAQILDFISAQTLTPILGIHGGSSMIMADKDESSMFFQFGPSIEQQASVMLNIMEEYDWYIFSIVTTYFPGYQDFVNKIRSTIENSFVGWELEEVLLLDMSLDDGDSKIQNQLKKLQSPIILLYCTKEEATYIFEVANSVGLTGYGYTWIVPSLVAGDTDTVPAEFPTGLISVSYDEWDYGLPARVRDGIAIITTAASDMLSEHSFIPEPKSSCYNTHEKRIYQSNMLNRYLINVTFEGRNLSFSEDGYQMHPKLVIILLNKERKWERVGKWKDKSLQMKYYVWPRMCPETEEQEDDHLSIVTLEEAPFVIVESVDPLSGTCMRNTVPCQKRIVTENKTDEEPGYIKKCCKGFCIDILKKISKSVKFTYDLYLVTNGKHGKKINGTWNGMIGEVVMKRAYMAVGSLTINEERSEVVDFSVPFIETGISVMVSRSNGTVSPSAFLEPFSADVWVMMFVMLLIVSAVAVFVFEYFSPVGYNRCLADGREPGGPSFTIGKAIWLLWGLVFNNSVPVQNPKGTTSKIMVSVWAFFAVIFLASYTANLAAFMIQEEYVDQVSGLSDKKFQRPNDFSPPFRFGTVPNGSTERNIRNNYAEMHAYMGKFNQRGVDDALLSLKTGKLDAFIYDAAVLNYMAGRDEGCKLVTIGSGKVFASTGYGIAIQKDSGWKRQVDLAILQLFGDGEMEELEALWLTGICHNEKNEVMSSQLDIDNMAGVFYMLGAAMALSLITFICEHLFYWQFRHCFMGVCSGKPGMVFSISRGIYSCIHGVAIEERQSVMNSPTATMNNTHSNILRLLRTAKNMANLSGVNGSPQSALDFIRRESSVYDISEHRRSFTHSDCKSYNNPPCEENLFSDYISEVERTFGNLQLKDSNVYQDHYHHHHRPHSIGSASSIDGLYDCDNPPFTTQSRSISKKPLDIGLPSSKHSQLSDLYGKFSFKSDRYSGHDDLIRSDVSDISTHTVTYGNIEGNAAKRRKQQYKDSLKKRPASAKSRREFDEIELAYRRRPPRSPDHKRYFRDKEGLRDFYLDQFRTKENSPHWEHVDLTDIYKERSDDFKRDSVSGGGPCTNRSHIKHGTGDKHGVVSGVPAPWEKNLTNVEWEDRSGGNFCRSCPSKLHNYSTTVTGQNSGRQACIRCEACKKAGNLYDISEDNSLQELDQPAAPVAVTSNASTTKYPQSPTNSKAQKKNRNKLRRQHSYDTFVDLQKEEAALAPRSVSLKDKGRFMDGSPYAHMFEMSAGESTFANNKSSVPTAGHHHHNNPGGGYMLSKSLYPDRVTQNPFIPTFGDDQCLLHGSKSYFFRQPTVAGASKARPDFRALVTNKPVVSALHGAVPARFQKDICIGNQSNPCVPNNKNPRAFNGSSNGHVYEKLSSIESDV
Type: cell-based
Further: test concentration or dose not given here.

Structure (SMILES)	Response Recovered (%)
C[Si](C)(C)CCOCn1cc(-c2ccc(Cl)c(F)c2)c2c(=O)n(CC(=O)N3CCCC3)ccc21 [Example 201, 3-(4-chloro-3-fluorophenyl)-5-(2-oxo-2-(pyrrolidin-1-yl)ethyl)-1-((2-(trimethylsilyl)ethoxy)methyl)-1H-pyrrolo[3,2-c]pyridin-4(5H)-one]	62
C[Si](C)(C)CCOCn1cc(-c2ccc(Cl)c(F)c2)c2c(=O)n(CC(=O)N3CCC(F)C3)ccc21 (stereo not shown) [Example 202, 3-(4-chloro-3-fluorophenyl)-5-(2-(3-fluoropyrrolidin-1-yl)-2-oxoethyl)-1-((2-(trimethylsilyl)ethoxy)methyl)-1H-pyrrolo[3,2-c]pyridin-4(5H)-one]	32
O=C(Cn1ccc2[nH]cc(-c3ccc(Cl)c(C(F)(F)F)c3)c2c1=O)N1CCC(F)C1 (stereo not shown) [Example 203, 3-(4-chloro-3-(trifluoromethyl)phenyl)-5-(2-(3-fluoropyrrolidin-1-yl)-2-oxoethyl)-1H-pyrrolo[3,2-c]pyridin-4(5H)-one]	42
O=C(Cn1ccc2[nH]cc(-c3ccc(Cl)c(F)c3)c2c1=O)N1CCC(F)C1 (stereo not shown) [Example 204, 3-(4-chloro-3-fluorophenyl)-5-(2-(3-fluoropyrrolidin-1-yl)-2-oxoethyl)-1H-pyrrolo[3,2-c]pyridin-4(5H)-one]	47
C[Si](C)(C)CCOCn1cc(-c2ccc(F)c(Cl)c2)c2c(=O)n(CC(=O)N3CCCC3)ccc21 [Example 205, 3-(3-chloro-4-fluorophenyl)-5-(2-oxo-2-(pyrrolidin-1-yl)ethyl)-1-((2-(trimethylsilyl)ethoxy)methyl)-1H-pyrrolo[3,2-c]pyridin-4(5H)-one]	59
C[Si](C)(C)CCOCn1cc(-c2ccc(F)c(Cl)c2)c2c(=O)n(CC(=O)N3CCC(F)C3)ccc21 (stereo not shown) [Example 206, 3-(3-chloro-4-fluorophenyl)-5-(2-(3-fluoropyrrolidin-1-yl)-2-oxoethyl)-1-((2-(trimethylsilyl)ethoxy)methyl)-1H-pyrrolo[3,2-c]pyridin-4(5H)-one]	107
C[Si](C)(C)CCOCn1cc(-c2ccc(F)c(Cl)c2)c2c(=O)n(CC(=O)N3CC(F)(F)C3)ccc21 [Example 207, 3-(3-chloro-4-fluorophenyl)-5-(2-(3,3-difluoroazetidin-1-yl)-2-oxoethyl)-1-((2-(trimethylsilyl)ethoxy)methyl)-1H-pyrrolo[3,2-c]pyndin-4(5H)-one]	69
O=C(Cn1ccc2[nH]cc(-c3ccc(F)c(Cl)c3)c2c1=O)N1CCCC1 [Example 208, 3-(3-chloro-4-fluorophenyl)-5-(2-oxo-2-(pyrrolidin-1-yl)ethyl)-1H-pyrrolo[3,2-c]pyridin-4(5H)-one]	60
O=C(Cn1ccc2[nH]cc(-c3ccc(F)c(Cl)c3)c2c1=O)N1CCC(F)C1 (stereo not shown) [Example 209, 3-(3-chloro-4-fluorophenyl)-5-(2-(3-fluoropyrrolidin-1-yl)-2-oxoethyl)-1H-pyrrolo[3,2-c]pyridin-4(5H)-one]	53
O=C(Cn1ccc2[nH]cc(-c3cnc(Cl)c(Cl)c3)c2c1=O)N1CC(F)C(F)C1 (stereo not shown) [Example 210, 3-(5,6-dichloropyridin-3-yl)-5-(2-(3,4-difluoropyrrolidin-1-yl)-2-oxoethyl)-1H-pyrrolo[3,2-c]pyridin-4(5H)-one]	26
O=C(Cn1ccc2[nH]cc(-c3ccc(Cl)c(F)c3)c2c1=O)N1CCCC1 [Example 211, 3-(4-chloro-3-fluorophenyl)-5-(2-oxo-2-(pyrrolidin-1-yl)ethyl)-1H-pyrrolo[3,2-c]pyridin-4(5H)-one]	55
O=C(Cn1ccc2[nH]cc(-c3ccc(Cl)c(C(F)(F)F)c3)c2c1=O)N1CC(F)(F)C1 [Example 212, 3-(4-chloro-3-(trifluoromethyl)phenyl)-5-(2-(3,3-difluoroazetidin-1-yl)-2-oxoethyl)-1H-pyrrolo[3,2-c]pyridin-4(5H)-one]	107
O=C(Cn1ccc2[nH]cc(-c3ccc(Cl)c(F)c3)c2c1=O)N1CC(F)(F)C1 [Example 213, 3-(4-chloro-3-fluorophenyl)-5-(2-(3,3-difluoroazetidin-1-yl)-2-oxoethyl)-1H-pyrrolo[3,2-c]pyridin-4(5H)-one]	109
O=C(Cn1ccc2[nH]cc(-c3ccc(Cl)c(Cl)c3)c2c1=O)N1CCC(F)C1 (stereo not shown) [Example 214, 3-(3,4-dichlorophenyl)-5-(2-(3-fluoropyrrolidin-1-yl)-2-oxoethyl)-1H-pyrrolo[3,2-c]pyridin-4(5H)-one]	84
O=C(Cn1ccc2[nH]cc(-c3ccc(F)c(C(F)(F)F)c3)c2c1=O)N1CCC(F)C1 (stereo not shown) [Example 215, 3-(4-fluoro-3-(trifluoromethyl)phenyl)-5-(2-(3-fluoropyrrolidin-1-yl)-2-oxoethyl)-1H-pyrrolo[3,2-c]pyridin-4(5H)-one]	89
O=C(Cn1ccc2[nH]cc(-c3ccc(F)c(C(F)(F)F)c3)c2c1=O)N1CC(F)(F)C1 [Example 216, 5-(2-(3,3-difluoroazetidin-1-yl)-2-oxoethyl)-3-(4-fluoro-3-(trifluoromethyl)phenyl)-1H-pyrrolo[3,2-c]pyridin-4(5H)-one]	101

Structure (SMILES)	Response Recovered (%)
O=C(Cn1ccc2[nH]cc(-c3ccc(Cl)c(Cl)c3)c2c1=O)N1CCCC1 [Example 217, 3-(3,4-dichlorophenyl)-5-(2-oxo-2-(pyrrolidin-1-yl)ethyl)-1H-pyrrolo[3,2-c]pyridin-4(5H)-one]	70
O=C(Cn1ccc2[nH]cc(-c3ccc(F)c(Cl)c3)c2c1=O)N1CC(F)(F)C1 [Example 218, 3-(3-chloro-4-fluorophenyl)-5-(2-(3,3-difluoroazetidin-1-yl)-2-oxoethyl)-1H-pyrrolo[3,2-c]pyridin-4(5H)-one]	71
O=C(Cn1ccc2[nH]cc(-c3ccc(F)c(C(F)(F)F)c3)c2c1=O)N1CCCC1 [Example 219, 3-(4-fluoro-3-(trifluoromethyl)phenyl)-5-(2-oxo-2-(pyrrolidin-1-yl)ethyl)-1H-pyrrolo[3,2-c]pyridin-4(5H)-one]	91
O=C(Cn1ccc2[nH]cc(-c3ccc(F)c(C(F)(F)F)c3)c2c1=O)N1CC(F)C(F)C1 (stereo not shown) [Example 220, 5-(2-(3,4-difluoropyrrolidin-1-yl)-2-oxoethyl)-3-(4-fluoro-3-(trifluoromethyl)phenyl)-1H-pyrrolo[3,2-c]pyridin-4(5H)-one]	120
O=C(Cn1ccc2[nH]cc(-c3cnc(Cl)c(C(F)(F)F)c3)c2c1=O)N1CC(F)C(F)C1 (stereo not shown) [Example 221, 3-(6-chloro-5-(trifluoromethyl)pyridin-3-yl)-5-(2-(3,4-difluoropyrrolidin-1-yl)-2-oxoethyl)-1H-pyrrolo[3,2-c]pyridin-4(5H)-one]	43
CC1(F)CN(C(=O)Cn2ccc3[nH]cc(-c4ccc(F)c(C(F)(F)F)c4)c3c2=O)C1 [Example 222, 3-(4-fluoro-3-(trifluoromethyl)phenyl)-5-(2-(3-fluoro-3-methylazetidin-1-yl)-2-oxoethyl)-1H-pyrrolo[3,2-c]pyridin-4(5H)-one]	86
O=C(Cn1ccc2c(c(-c3ccc(Cl)c(C(F)(F)F)c3)cn2-c2ccccn2)c1=O)N1CCC(F)C1 (stereo not shown) [Example 224, 3-(4-chloro-3-(trifluoromethyl)phenyl)-5-(2-(3-fluoropyrrolidin-1-yl)-2-oxoethyl)-1-(pyridin-2-yl)-1H-pyrrolo[3,2-c]pyridin-4(5H)-one]	109
O=C(Cn1ccc2c(c(-c3ccc(F)c(C(F)(F)F)c3)cn2-c2ccccn2)c1=O)N1CCC(F)C1 (stereo not shown) [Example 225, 3-(4-fluoro-3-(trifluoromethyl)phenyl)-5-(2-(3-fluoropyrrolidin-1-yl)-2-oxoethyl)-1-(pyridin-2-yl)-1H-pyrrolo[3,2-c]pyridin-4(5H)-one]	83
O=C(Cn1ccc2c(c(-c3ccc(F)c(Cl)c3)cn2-c2ccccn2)c1=O)N1CCC(F)C1 (stereo not shown) [Example 228, 3-(4-chloro-4-fluorophenyl)-5-(2-(3-fluoropyrrolidin-1-yl)-2-oxoethyl)-1-(pyridin-2-yl)-1H-pyrrolo[3,2-c]pyridin-4(5H)-one]	39
O=C(Cn1ccc2c(c(-c3ccc(Cl)c(Cl)c3)cn2-c2ccccn2)c1=O)N1CCC(F)C1 (stereo not shown) [Example 229, 3-(3,4-dichlorophenyl)-5-(2-(3-fluoropyrrolidin-1-yl)-2-oxoethyl)-1-(pyridin-2-yl)-1H-pyrrolo[3,2-c]pyridin-4(5H)-one]	78
O=C(Cn1ccc2c(c(-c3ccc(F)c(C(F)(F)F)c3)cn2-c2ccccc2)c1=O)N1CCC(F)C1 (stereo not shown) [Example 230, 3-(4-fluoro-3-(trifluoromethyl)phenyl)-5-(2-(3-fluoropyrrolidin-1-yl)-2-oxoethyl)-1-phenyl-1H-pyrrolo[3,2-c]pyridin-4(5H)-one]	109
O=C(Cn1ccc2c(c(-c3ccc(F)c(C(F)(F)F)c3)cn2C2CC2)c1=O)N1CCC(F)C1 (stereo not shown) [Example 231, 1-cyclopropyl-3-(4-fluoro-3-(trifluoromethyl)phenyl)-5-(2-(3-fluoropyrrolidin-1-yl)-2-oxoethyl)-1H-pyrrolo[3,2-c]pyridin-4(5H)-one]	90
O=C(Cn1ccc2c(c(-c3ccc(F)c(Cl)c3)cn2C2CC2)c1=O)N1CCC(F)C1 (stereo not shown) [Example 232, 3-(3-chloro-4-fluorophenyl)-1-cyclopropyl-5-(2-(3-fluoropyrrolidin-1-yl)-2-oxoethyl)-1H-pyrrolo[3,2-c]pyridin-4(5H)-one]	66
O=C(Cn1ccc2c(c(-c3ccc(Cl)c(Cl)c3)cn2C2CC2)c1=O)N1CCC(F)C1 (stereo not shown) [Example 233, 1-cyclopropyl-3-(3,4-dichlorophenyl)-5-(2-(3-fluoropyrrolidin-1-yl)-2-oxoethyl)-1H-pyrrolo[3,2-c]pyridin-4(5H)-one]	85
Cn1cc(-n2cc(-c3ccc(F)c(C(F)(F)F)c3)c3c(=O)n(CC(=O)N4CCC(F)C4)ccc32)cn1 (stereo not shown) [Example 234]	80
